The record followed here is article PMC8607422, “Development of a novel TLR8 agonist for cancer immunotherapy” (Molecular Biomedicine, 2020).

In data set [1] the target is T1, hTLR8 (Homo sapiens, UniProt Q9NR97).
T1 construct: host or cells: HEK-Blue hTLR8 (HEK293-derived, per own knowledge)
T1 sequence (Q9NR97 27-1041): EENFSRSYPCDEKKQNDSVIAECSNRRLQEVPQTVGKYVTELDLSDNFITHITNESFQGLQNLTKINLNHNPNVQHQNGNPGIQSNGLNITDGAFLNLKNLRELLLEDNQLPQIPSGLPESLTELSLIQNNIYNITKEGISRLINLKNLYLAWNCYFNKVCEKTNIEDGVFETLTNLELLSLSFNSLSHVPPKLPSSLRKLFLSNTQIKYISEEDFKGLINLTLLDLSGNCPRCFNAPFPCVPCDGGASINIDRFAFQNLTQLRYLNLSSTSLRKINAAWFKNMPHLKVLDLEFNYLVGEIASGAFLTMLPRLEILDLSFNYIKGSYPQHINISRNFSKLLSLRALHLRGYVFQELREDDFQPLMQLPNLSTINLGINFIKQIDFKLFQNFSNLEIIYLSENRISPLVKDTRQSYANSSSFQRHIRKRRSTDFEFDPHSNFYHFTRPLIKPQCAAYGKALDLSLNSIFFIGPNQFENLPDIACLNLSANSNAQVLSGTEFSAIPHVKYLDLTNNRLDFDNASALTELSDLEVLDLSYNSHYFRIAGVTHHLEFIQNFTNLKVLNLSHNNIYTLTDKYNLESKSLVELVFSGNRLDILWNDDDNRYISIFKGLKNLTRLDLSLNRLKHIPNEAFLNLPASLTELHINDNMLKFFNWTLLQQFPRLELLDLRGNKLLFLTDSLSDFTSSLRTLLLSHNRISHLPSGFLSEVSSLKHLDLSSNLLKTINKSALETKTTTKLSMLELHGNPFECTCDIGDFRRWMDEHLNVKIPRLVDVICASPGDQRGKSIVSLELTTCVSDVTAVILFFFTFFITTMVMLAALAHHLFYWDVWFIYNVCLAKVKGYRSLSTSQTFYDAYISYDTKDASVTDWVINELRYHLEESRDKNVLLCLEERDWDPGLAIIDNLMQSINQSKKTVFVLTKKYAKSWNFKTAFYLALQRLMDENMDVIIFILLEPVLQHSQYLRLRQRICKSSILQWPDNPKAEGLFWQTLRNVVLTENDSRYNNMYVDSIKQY
Description: HEK-Blue hTLR8 SEAP reporter agonist assay. The data set is classed as cell-based. The source says: HEK-Blue™ hTLR4, 7, 8 and 9 cell lines were purchased from InvivoGen (Hong Kong). The cells express the human TLR gene and NF-κB/AP-1-inducible SEAP (secreted embryonic alkaline phosphatase) reporter gene. SEAP levels produced upon TLR stimulation can be determined by QUANTI-Blue™. In the cell-based assay, the main reagents used were QUANTI-Blue™ (InvivoGen) and ATPlite 1 Step (Perkin Elmer). The main instruments used were the microplate reader SpectraMax 340PC (Molecular Device) and Envision (Perkin Elmer). […] The compounds were in 10 mM stock solution in DMSO and stored at − 20°C. […] DMSO was used as the negative control. […] The cells were cultured and treated with the compounds at 37°C, 5%CO2 for 24 h. After 24 h of incubation, 20 μl of the supernatant of each well was added to 180 μl of QUANTI-Blue™. The plates were incubated at 37°C for 1.5 h. After 1.5 h of incubation, the optical density was measured using the spectrophotometer at 650 nm in the microplate reader of SpectraMax 340PC. The cell viability of each well was determined using ATPlite 1 Step following the manufacturer’s instruction. The luminescence signal in each well of plates was measured in the microplate reader of Envision.

Data set [2] in a line: in vivo. Details: species or system cynomolgus monkeys. The following applies: cynomolgus, cynomolgus monkey, sc, 1 mg/kg. The protocol:
To determine the in vivo pharmacokinetic profiles, the compounds were formulated with 11% captisol and then administered iv, ip, sc and po into Sprague Dawley rats or iv and sc into mice or cynomolgus monkeys, respectively. Blood samples were collected before dosing and 0.083 h, 0.25 h, 0.5 h, 1 h, 2 h, 4 h, 6 h, 8 h, 12 h and 24 h after dosing. Blood samples were collected in tubes containing K2EDTA. Plasma was isolated from the blood samples by centrifugation of the blood samples at 2400 × g for 5 min at 4°C. Plasma samples were measured using LC-MS/MS (Waters ACQUITY UPLC and TQ 6500+) to determine the concentration of compounds. The data was analyzed using WinNonlin 7.0 to calculate the PK parameters such as AUC0-t, AUC0-∞, MRT0-∞, Cmax, Tmax, t1/2 and F.

By EC50 is commonly meant the concentration needed to bring the measured effect to its halfway point. The term AUC(0-inf) denotes total exposure, with the tail of the curve extrapolated. High values mean high exposure, low ones low exposure. A word on the AUC(0-t): it is exposure summed from dosing to a finite time, without extrapolation to infinity. Read a low AUC(0-t) as less exposure. Broadly, the Cmax is the peak of the concentration-time curve. The MRT inf is a mean duration of stay, worked out from the concentration-time curve. As a reminder, the Tmax is the time from dosing to the highest level. What is called half-life is the time needed for the level to fall by half in the phase considered.

`CCCN(CCC)C(=O)C1=Cc2ccc(-c3ccc(C(=O)N4CCCC4)cc3)cc2N=C(N)C1` [Motolimod, motolimod]: the EC50 in data set [1] (HEK-Blue hTLR8 cells, 24 h, SEAP, read-out: EC50 in hTLR8 agonist activity (TLR8 cell EC50)) is 0.109 µM. Besides, the TLR8 selectivity in data set [1] (TLR8 over other TLR cell EC50) was determined as 182 fold. In data set [2], this compound yielded an AUC(0-inf) of 270 ng·h/mL, an AUC(0-t) of 270 ng·h/mL, a Cmax of 80 ng/mL and an MRT inf of 2.95 h. In addition, in data set [2], the Tmax worked out at 2 h and the half-life is 1.43 h.
